Legend:
Experiment in all cases: relative viability (nuclei count vs DMSO), 5 days (fraction); higher = more cells survive
[1] = compound: CCN1C(=O)C2=CC(=C(N=C2N(C1=O)C3CC3)N)C(=O)N + CC1(C)CCC(c2ccc(Cl)cc2)=C(CN2CCN(c3ccc(C(=O)NS(=O)(=O)c4ccc(N[C@H](CCN5CCOCC5)CSc5ccccc5)c(S(=O)(=O)C(F)(F)F)c4)cc3)CC2)C1 [Navitoclax] (partner 0.5 µM)
Summary of the method: (§1)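 Nuclei were stained with Hoechst during a one-step fixation (final 0.05% Triton X-100, 1% formaldehyde, 1 ug/ml Hoechst) carried out 5 days after dosing, then counted on 4× images. The cells, lung cancer lines in 1536-well plates, had been dosed by pin tool the day after seeding with one drug alone or a fixed anchor-drug dose plus five library-drug doses (not always all listed) in √10 steps. Relative viability is the nuclei count in treated wells divided by that in vehicle wells, and each value is the median of duplicate plates.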

[2] = compound: CCN1C(=O)C2=CC(=C(N=C2N(C1=O)C3CC3)N)C(=O)N + COc1cc2c(Oc3ccc(NC(=O)C4(C(=O)Nc5ccc(F)cc5)CC4)cc3F)ccnc2cc1OCCCN1CCOCC1 [Foretinib] (partner 0.25 µM)
Summary of the method: as §1

[3] = compound: CCN1C(=O)C2=CC(=C(N=C2N(C1=O)C3CC3)N)C(=O)N + COc1cccc2cc(-c3nc([C@H]4CC[C@H](C(=O)O)CC4)n4ncnc(N)c34)[nH]c12 [OSI-027] (partner 0.5 µM)
Summary of the method: as §1

[4] = compound: CCN1C(=O)C2=CC(=C(N=C2N(C1=O)C3CC3)N)C(=O)N + Cc1cc(Nc2cc(N3CCN(C)CC3)nc(Sc3ccc(NC(=O)C4CC4)cc3)n2)n[nH]1 [Tozasertib] (partner 0.1 µM)
Summary of the method: as §1

[5] = compound: CCN1C(=O)C2=CC(=C(N=C2N(C1=O)C3CC3)N)C(=O)N + Nc1nc2[nH]cc(CCc3ccc(C(=O)N[C@@H](CCC(=O)O)C(=O)O)cc3)c2c(=O)[nH]1 [Pemetrexed] (partner 0.2 µM)
Summary of the method: as §1

Cell Line | relative viability ([1]; first compound 0.253 µM) | relative viability ([1]; first compound 0.8 µM) | relative viability ([1]; first compound 2.53 µM) | relative viability ([1]; first compound 8 µM) | relative viability ([2]; first compound 0.253 µM) | relative viability ([2]; first compound 0.8 µM) | relative viability ([2]; first compound 2.53 µM) | relative viability ([2]; first compound 8 µM) | relative viability ([3]; first compound 0.253 µM) | relative viability ([3]; first compound 0.8 µM) | relative viability ([3]; first compound 2.53 µM) | relative viability ([3]; first compound 8 µM) | relative viability ([4]; first compound 0.253 µM) | relative viability ([4]; first compound 0.8 µM) | relative viability ([4]; first compound 2.53 µM) | relative viability ([4]; first compound 8 µM) | relative viability ([5]; first compound 0.253 µM) | relative viability ([5]; first compound 0.8 µM) | relative viability ([5]; first compound 2.53 µM) | relative viability ([5]; first compound 8 µM)
NCI-H2085 | 1.15 | 1.1 | 1.2 | 0.997 | 0.992 | 0.874 | 0.834 | 0.947 | 0.728 | 0.691 | 0.738 | 0.684 | 0.85 | 0.726 | 0.867 | 0.613 | 0.914 | 0.847 | 0.987 | 0.851
NCI-H2087 | 0.94 | 1.11 | 0.994 | 0.941 | 1.04 | 1.25 | 1.08 | 1.12 | 0.437 | 0.671 | 0.636 | 0.55 | 0.258 | 0.249 | 0.214 | 0.266 | 0.676 | 0.629 | 0.677 | 0.608
NCI-H2126 | 0.86 | 0.884 | 0.736 | 0.775 | 1.34 | 0.76 | 1.09 | 1.12 | 0.598 | 0.541 | 0.819 | 0.747 | 0.86 | 0.798 | 0.801 | 0.828 | 0.682 | 0.671 | 0.674 | 0.674
NCI-H2170 | 0.576 | 0.544 | 0.608 | 0.595 | 1.02 | 1 | 0.954 | 0.989 | 0.278 | 0.707 | 0.72 | 0.664 | 0.752 | 0.788 | 0.692 | 0.632 | 0.271 | 0.289 | 0.28 | 0.251
NCI-H2228 | 0.996 | 1.29 | 0.925 | 0.838 | 0.95 | 0.982 | 0.82 | 0.839 | 0.557 | 0.674 | 0.633 | 0.645 | 0.205 | 0.189 | 0.233 | 0.162 | 0.35 | 0.464 | 0.336 | 0.372
NCI-H2347 | 0.816 | 0.871 | 0.801 | 0.749 | 0.797 | 1.09 | 1.43 | 1.09 | 0.481 | 0.344 | 0.384 | 0.346 | 0.666 | 0.61 | 0.572 | 0.482 | 0.458 | 0.442 | 0.421 | 0.447
NCI-H2405 | 1.13 | 0.882 | 1.01 | 1.07 | 1.04 | 1.05 | 1.07 | 1.06 | 0.664 | 0.667 | 0.604 | 0.616 | 0.823 | 0.777 | 0.757 | 0.732 | 1.1 | – | 1.14 | 1.03
NCI-H3122 | 1.06 | 1.02 | 1.02 | 1.01 | 1.02 | 0.991 | 0.968 | 0.916 | 0.888 | 0.948 | 0.905 | 0.93 | 0.393 | 0.369 | 0.376 | 0.533 | 0.217 | 0.198 | 0.202 | 0.192
